Tests used:
[1] = Specific surface area by gas adsorption (BET); type: physicochemical; conditions: BET equation
Procedure: (§1) The particle size and particle size distribution of samples were determined by dynamic light scattering (DLS) using electrophoretic light scattering spectrophotometer (ELS-8000, Otsuka Electronics, Japan) at a fixed angle of 90° and at room temperature. The samples were dispersed in mineral oil (Macrol 52, Exxon Mobil Co., USA) and sonicated before measurement. The particle size and particle size distribution of samples were also determined with a Sympatec laser diffraction analyzer (HELOS/RODOS, Clausthal-Zellerfeld, Germany) consisted of a laser sensor HELOS and a RODOS dry-powder air-dispersion system. The specific surface area was determined using the gas adsorption method. Calculation is based on the BET equation. Surface Area Analyzer ASAP 2010 (Micromeritics Instrument Corporation, USA) was used.

[2] = Particle size by dynamic light scattering / laser diffraction; type: physicochemical
Procedure: as §1

[3] = DLS, dispersed in mineral oil, room temperature

| SMILES | Specific surface area [1] [m^2/g] | Mean particle size ([2]; DLS / laser diffraction) [μm] | Mean particle size [2, 3] [nm] |
| --- | --- | --- | --- |
| CC(C)c1c(C(=O)Nc2ccccc2)c(-c2ccccc2)c(-c2ccc(F)cc2)n1CC[C@@H](O)C[C@@H](O)CC(=O)[O-].CC(C)c1c(C(=O)Nc2ccccc2)c(-c2ccccc2)c(-c2ccc(F)cc2)n1CC[C@@H](O)C[C@@H](O)CC(=O)[O-].[Ca+2] [Comparative Example 1, atorvastatin calcium, reference compound] | 0.95 | 7.31 | – |
| CC(C)c1c(C(=O)Nc2ccccc2)c(-c2ccccc2)c(-c2ccc(F)cc2)n1CC[C@@H](O)C[C@@H](O)CC(=O)[O-].CC(C)c1c(C(=O)Nc2ccccc2)c(-c2ccccc2)c(-c2ccc(F)cc2)n1CC[C@@H](O)C[C@@H](O)CC(=O)[O-].[Ca+2] [Example 2, atorvastatin calcium] | 90.28 | – | 179 |
| CC(C)c1c(C(=O)Nc2ccccc2)c(-c2ccccc2)c(-c2ccc(F)cc2)n1CC[C@@H](O)C[C@@H](O)CC(=O)[O-].CC(C)c1c(C(=O)Nc2ccccc2)c(-c2ccccc2)c(-c2ccc(F)cc2)n1CC[C@@H](O)C[C@@H](O)CC(=O)[O-].[Ca+2] [Example 9, atorvastatin calcium] | 47.82 | – | 265 |
| CC(C)c1c(C(=O)Nc2ccccc2)c(-c2ccccc2)c(-c2ccc(F)cc2)n1CC[C@@H](O)C[C@@H](O)CC(=O)[O-].CC(C)c1c(C(=O)Nc2ccccc2)c(-c2ccccc2)c(-c2ccc(F)cc2)n1CC[C@@H](O)C[C@@H](O)CC(=O)[O-].[Ca+2] [Example 10, atorvastatin calcium] | 30.88 | – | 727 |
| CC(C)c1c(C(=O)Nc2ccccc2)c(-c2ccccc2)c(-c2ccc(F)cc2)n1CC[C@@H](O)C[C@@H](O)CC(=O)[O-].CC(C)c1c(C(=O)Nc2ccccc2)c(-c2ccccc2)c(-c2ccc(F)cc2)n1CC[C@@H](O)C[C@@H](O)CC(=O)[O-].[Ca+2] [Example 18, atorvastatin calcium] | 79.78 | – | 155 |
| CC(C)c1c(C(=O)Nc2ccccc2)c(-c2ccccc2)c(-c2ccc(F)cc2)n1CC[C@@H](O)C[C@@H](O)CC(=O)[O-].CC(C)c1c(C(=O)Nc2ccccc2)c(-c2ccccc2)c(-c2ccc(F)cc2)n1CC[C@@H](O)C[C@@H](O)CC(=O)[O-].[Ca+2] [Example 25, atorvastatin calcium] | 120.35 | – | 65 |
| CC(C)c1c(C(=O)Nc2ccccc2)c(-c2ccccc2)c(-c2ccc(F)cc2)n1CC[C@@H](O)C[C@@H](O)CC(=O)[O-].CC(C)c1c(C(=O)Nc2ccccc2)c(-c2ccccc2)c(-c2ccc(F)cc2)n1CC[C@@H](O)C[C@@H](O)CC(=O)[O-].[Ca+2] [Starting material, atorvastatin calcium, reference compound] | 14.56 | 3.87 | – |
